Data taken from patent US20230265069A1, “Small Molecule Inhibitors That Block the Budding of Enveloped Viruses” (priority 2020, published 2023).
“Also recorded” adds a separate entry of the source. Like-named read-outs stand apart in the source and are kept apart here.

How the values were obtained:
HSV-2 [1] = assay: HSV-2 release from infected Vero cells, plaque assay; conditions: for EC50: read-out: EC50 (μM) Inhibition of HSV-2 Budding at 24 h; for Titer of HSV-2 Media, 24 h / Titer of HSV-2 in media + cell lysate, 24 h / Titer of HSV-2 in media, 48 h: Vero cells
[2] = biological target: T1, Tsg101-UEV (Tsg101 amino acids 1-145) (Homo sapiens, UniProt Q99816); assay: Fluorescence thermal shift (FTS) assay, binding to Tsg101-UEV; conditions: for Thermal shift (Tm shift) of Tsg101-UEV caused by compound: FTS dose response, result in words; for Tm shift of Tsg101 in the FTS assay on addition of DTT: with reducing agent DTT
T1 sequence (Q99816 1-145): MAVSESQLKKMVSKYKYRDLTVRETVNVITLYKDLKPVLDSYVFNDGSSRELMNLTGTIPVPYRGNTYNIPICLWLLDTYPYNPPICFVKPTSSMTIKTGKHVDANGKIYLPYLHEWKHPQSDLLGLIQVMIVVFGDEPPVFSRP
Description: The fluorescence-based thermal shift assay is based on the observation that a protein unfolds upon heating, exposing the hydrophobic residues within its tertiary structure. The unfolding temperature (Tm) is determined by the protein's primary sequence and solution environment. The FTS assay uses a fluorescent dye sensitive to a hydrophobic environment to probe protein stability and its modulation by small molecule ligands. The dye has a low fluorescence quantum yield when in a polar environment. Once in contact with the hydrophobic core normally buried within a folded protein that has become exposed during the thermal unfolding (melting) process, the quantum yield of the dye increases, thus providing a reporting signal. Furthermore, a protein's stability can be affected by ligand binding, resulting in an increase or decrease in its melting temperature. FTS assay uses the Tm shift upon binding of a ligand to identify hit compounds for drug discovery.
We screened chemical compounds using a fluorescence thermal shift (FTS) assay (27, 28) to identify small molecules that bind directly to a truncated form of Tsg101 (amino acids 1-145) which contains the Ubiquitin E2 variant (UEV) ubiquitin-binding domain (FIG. 1A, 1B, 1C). […] This truncated Tsg101, called Tsg101-UEV, was used because full-length Tsg101 has significant solubility issues in aqueous solution. Tsg101 is an adaptor protein and thus lacks a readily deployable functional assay, making FTS a tractable approach to identify interacting compounds. FTS monitors protein thermal denaturation using SYPRO® Orange, a dye which fluoresces when bound to hydrophobic surfaces, which allows monitoring of the changes in hydrophobic surface exposure during protein denaturation (27). Since ligand binding affects protein thermal stability, it can be detected through modulation of protein thermal denaturation (melting) as a shift in melting temperature (Tm). Tsg101-UEV has a well-defined melting curve suitable for FTS. We used the FTS assay to identify compounds that bind to Tsg101-UEV.
Fluorescence thermal shift (FTS) screening to identify small molecule binding to Tsg101-UEV. FTS using thermal shift elicited by the small molecule binding effect to protein stability. FTS monitors protein thermal denaturation using environment-sensitive dye Sypro® Orange which fluoresces when bound to hydrophobic surfaces, taking advantage of the changes in hydrophobic surface exposure in protein denaturation. Discovery of small molecule binding to target protein utilizes the observation that ligand binding affects protein thermal stability, and therefore can be detected through a shift in the protein's thermal denaturation (melting) temperature (Tm). We have employed FTS to reveal changes in thermodynamic properties of Tsg101 elicited by its interaction with a small molecule. […] A fluorescence dye Sypro® Orange (Invitrogen) was used for assay detection. The dye is excited at 473 nm and has a fluorescence emission at 610 nm. The dye binds to hydrophobic regions of a protein that are normally buried in a native protein structure. […] The Tsg101 fragment was premixed at a concentration of 2 μM with a 5× concentration of Sypro® Orange in HEPES buffer (100 mM HEPES, 150 mM NaCl, pH 7.5). Then 10 μl of the protein-dye mix was added to an assay plate and 10 to 50 nanoliters of compound, equal to 10 to 50 μM, were added with an acoustic transfer robot Echo550 (Labcyte, CA).

HIV-1 [3] = conditions: 293T cells in culture; cited from earlier work
293T cells = assay: 293T cell viability, 96 Aqueous One reagent; format: cell-based
Description: (§1) Drug potency and cell toxicity. […] Cell toxicity experiments were repeated twice.

Vero cells [4] = assay: Vero cell viability, 96 AQueous One Solution cell proliferation assay; format: cell-based
Description: as §1

Vero cells [5] = assay: Vero cell toxicity, WST-1 reagent; format: cell-based
Description: as §1

HSV-2 [6] = assay: Transmission electron microscopy of HSV-2 infected Vero cells, particle counts; conditions: 18 μM ilaprazole, 24 h, HSV-2, Vero cells
Description: Vero cells grown on glass cover slips were infected with HSV-2 at MOI of 0.1 pfu/cell for 2 h and then treated for 24 h with 105 μM tenatoprazole or vehicle control.
(§2) Transmission electron Microscopy. Vero cells on glass cover slips were infected with HSV-2 at a MOI of 0.1 for two hours. Then 105 μM of tenatoprazole or 18 μM Ilaprazole was added and cells incubated for 24 hours. Tissue samples were fixed in 0.1 M sodium cacodylate buffer pH 7.3 containing 2% paraformaldehyde and 2.5% glutaraldehyde and post-fixed with 2% osmium tetroxide 427 in unbuffered aqueous solution. The samples were rinsed with distilled water, en bloc stained with 3% uranyl acetate, rinsed with distilled water, dehydrated in ascending grades of ethanol, transitioned with propylene oxide, embedded in the resin mixture of Embed 812 kit and cured in a 60° C. oven. Samples were sectioned on a Leica Ultracut UC6 ultramicrotome. 1 μm thick sections were collected and stained with Toluidine Blue O and 70 nm sections were collected on 200 mesh copper grids; thin sections were stained with uranyl acetate and Reynolds lead citrate. Transmission electron microscopy (TEM) was performed on a FEI Tecnai Spirit G2.

HSV-1 [7] = assay: HSV-1 release from infected Vero cells, plaque assay; conditions: Vero cells
HIV-1 [8] = conditions: 293T cells, media, 24 h
Description: Effect of Ilaprazole on release of HIV-1 in vitro. […] To this end, cells were transfected with pR9-HIV-1Ba-L plasmid and release of virus into the media fraction was detected by monitoring the capsid (CA) protein (p24) via enzyme linked immunosorbent assay analysis. The drug was tested at concentrations between 0 and 240 μM and the effect of the drug on release of virus assessed (Table 4, column 2).
HIV-1 transfection of 293 T cells. 293T cells (American Type Culture Collection) were grown in a 24-well Clear Flat Bottom TC-treated Multiwell Cell Culture Plate using Dulbecco's modified Eagle's medium (Cellgro) containing fetal bovine serum (10%), 100 U/ml penicillin, 100 μg/ml streptomycin, and 292 μg/ml 1-glutamine (Cellgro). Cells were grown to 60-70% confluency at 37° C. and 5% CO2 408 prior to addition of drug treatment. Culture media was aspirated and replaced with media containing drug compound 7 hours prior to transfection of the plasmid encoding the HIV-1 genome. Transfection was done using reagent Polyethyleneimine (PEI, Polysciences). […] After 24 h and 48 h, tissue culture media was collected and passed through a 0.45-micron filter. Virus released from cells was quantified by media-associated p24 determined using fluorescently tagged CA targeting antibody (PerkinElmer) and equivalent amounts of p24 as standards.

HSV-1 [9] = assay: Transmission electron microscopy of HSV-1 infected Vero cells, particle counts; conditions: 18 μM ilaprazole, 24 h, HSV-1, Vero cells
Description: as §2

[10] = HSV-2 infected Vero cells, virus released into media, plaque assay
[11] = Human alphaherpesvirus 2, Vero, 24 h

Question: Which EC50 (HSV-2 [1]; [10]) does the source give for 4-desmethoxy-omeprazole here?
Answer: 52 µM

Question: Which “EC50 (μM) Inhibition of HSV-2 Budding at 24 h” value (“EC50 (μM) Inhibition” below) (HSV-2 [1]; [10]) does the source give for “5-methoxy-2[[(3,5-dimethyl-4-methoxy-pridin-2-yl-N-oxide)methyl]sulfinyl]-1H-benzimidazole [O-omeprazole]” here?
Answer: inactive

Question: What about the “Thermal shift (Tm shift) of Tsg101-UEV caused by compound” value (from here on “Thermal shift (Tm shift)”) [2] of the same compound?
Answer: did not cause a detectable thermal shift

Question: With `Cc1c(OCC(F)(F)F)ccnc1C[S+]([O-])c1nc2ccccc2[nH]1` (stereo not drawn) [Lansoprazole] as the compound, how does the EC50 (HSV-2 [1]; [11]) read?
Answer: 84 µM

Question: Which EC50 (HSV-2 [1]; [11]) does the source give for `COc1ccc2[nH]c([S+]([O-])Cc3ncc(C)c(OC)c3C)nc2c1` (stereo not drawn) [Omeprazole] here?
Answer: 78 µM

Question: With Dexlansoprazole as the compound, how does the EC50 (HSV-2 [1]; [10]) read?
Answer: 76 µM

Question: For Esomeprazole, which “Inhibition of release of infectious HIV-1 from 293T cells (earlier report)” value (HIV-1 [3]) is on record?
Answer: quantitatively inhibit

Question: And the EC50 (HSV-2 [1]; [10])?
Answer: 140 µM

Question: For Ilaprazole, which “Toxicity to cells at concentrations that inhibited release of HIV-1” value (293T cells; 293T cells) is on record?
Answer: did not detect toxicity

Question: And the “96 ® Cell Viability OD490 nm, 24 h” value (293T cells; Ilaprazole 1.8 μM)?
Answer: 1.672

Question: What about the “96 ® Cell Viability OD490 nm, 24 h” value (293T cells; Ilaprazole 3.6 μM) of the same compound?
Answer: 1.576

Question: What about the “96 ® Cell Viability OD490 nm, 24 h” value (293T cells; Ilaprazole 7.2 μM) of the same compound?
Answer: 1.684

Question: And the “96 ® Cell Viability OD490 nm, 24 h” value (293T cells; Ilaprazole 10.8 μM)?
Answer: 1.650

Question: And the “96 ® Cell Viability OD490 nm, 24 h” value (293T cells; Ilaprazole 13.5 μM)?
Answer: 1.693

Question: What about the “Cell toxicity at concentrations that block virus release” value (Vero cells [4]; 24 h, result in words) of the same compound?
Answer: did not observe cell toxicity

Question: What about the “96 ® Cell Viablility OD490 nm 24 h” value (Vero cells [4]; Ilaprazole 4.5 μM) of the same compound?
Answer: 1.764

Question: And the “96 ® Cell Viablility OD490 nm 24 h” value (Vero cells [4]; Ilaprazole 9.0 μM)?
Answer: 1.711

Question: And the “96 ® Cell Viablility OD490 nm 24 h” value (Vero cells [4]; Ilaprazole 13.5 μM)?
Answer: 1.690

Question: What about the “96 ® Cell Viablility OD490 nm 24 h” value (Vero cells [4]; Ilaprazole 18.0 μM) of the same compound?
Answer: 1.737

Question: What about the “96 ® Cell Viablility OD490 nm 24 h” value (Vero cells [4]; Ilaprazole 54 μM) of the same compound?
Answer: 1.658

Question: What about the “96 ® Cell Viablility OD490 nm 24 h” value (Vero cells [4]; Ilaprazole 270 μM) of the same compound?
Answer: 0.466

Question: And the “WST-1 Cell Toxicity OD440-660 nm, 24 h” value (Vero cells [5]; Ilaprazole 4.5 μM)?
Answer: 1.058

Question: And the “WST-1 Cell Toxicity OD440-660 nm, 24 h” value (Vero cells [5]; Ilaprazole 9.0 μM)?
Answer: 1.055

Question: What about the “WST-1 Cell Toxicity OD440-660 nm, 24 h” value (Vero cells [5]; Ilaprazole 13.5 μM) of the same compound?
Answer: 0.950

Question: What about the “WST-1 Cell Toxicity OD440-660 nm, 24 h” value (Vero cells [5]; Ilaprazole 27 μM) of the same compound?
Answer: 1.055

Question: What about the “WST-1 Cell Toxicity OD440-660 nm, 24 h” value (Vero cells [5]; Ilaprazole 270 μM) of the same compound?
Answer: 0.423

Question: What about the “Average number of virus particles in the nucleus” value (HSV-2 [6]) of the same compound?
Answer: 31 particles

Question: And the “Range of virus particles in the nucleus” value (HSV-2 [6])?
Answer: 9-56 particles

Question: And the “Virus particles in the cytoplasm” value (HSV-2 [6])?
Answer: 0 particles

Question: What about the “Titer of HSV-2 Media, 24 h” value (HSV-2 [1]; Ilaprazole 4.5 μM) of the same compound?
Answer: 1.00E+05

Question: And the “Titer of HSV-2 in media + cell lysate, 24 h” value (HSV-2 [1]; Ilaprazole 4.5 μM)?
Answer: 3.60E+07

Question: And the “Titer of HSV-2 in media, 48 h” value (HSV-2 [1]; Ilaprazole 4.5 μM)?
Answer: 2.50E+05

Question: And the “Titer of HSV-2 Media, 24 h” value (HSV-2 [1]; Ilaprazole 9.0 μM)?
Answer: 5.00E+04

Question: What about the “Titer of HSV-2 in media + cell lysate, 24 h” value (HSV-2 [1]; Ilaprazole 9.0 μM) of the same compound?
Answer: 4.50E+06

Question: And the “Titer of HSV-2 in media, 48 h” value (HSV-2 [1]; Ilaprazole 9.0 μM)?
Answer: 7.50E+04

Question: And the “Titer of HSV-2 Media, 24 h” value (HSV-2 [1]; Ilaprazole 13.5 μM)?
Answer: 1.00E+04

Question: And the “Titer of HSV-2 in media + cell lysate, 24 h” value (HSV-2 [1]; Ilaprazole 13.5 μM)?
Answer: 4.30E+06

Question: And the “Titer of HSV-2 in media, 48 h” value (HSV-2 [1]; Ilaprazole 13.5 μM)?
Answer: 5.50E+04

Question: What about the “Titer of HSV-2 Media, 24 h” value (HSV-2 [1]; Ilaprazole 18.0 μM) of the same compound?
Answer: 1.50E+03

Question: What about the “Titer of HSV-2 in media + cell lysate, 24 h” value (HSV-2 [1]; Ilaprazole 18.0 μM) of the same compound?
Answer: 2.00E+05

Question: And the “Titer of HSV-2 in media, 48 h” value (HSV-2 [1]; Ilaprazole 18.0 μM)?
Answer: 1.50E+03

Question: What about the “Titer of HSV-2 Media, 24 h” value (HSV-2 [1]; Ilaprazole 22.5 μM) of the same compound?
Answer: 1.00E+02

Question: What about the “Titer of HSV-2 in media + cell lysate, 24 h” value (HSV-2 [1]; Ilaprazole 22.5 μM) of the same compound?
Answer: 1.50E+04

Question: And the “Titer of HSV-2 in media, 48 h” value (HSV-2 [1]; Ilaprazole 22.5 μM)?
Answer: 3.00E+02

Question: What about the EC50 (HSV-2 [1]; [10]) of the same compound?
Answer: 3 to 9 µM

Question: And the “Titer of HSV-1 Media, 24 h” value (HSV-1 [7]; Ilaprazole 4.5 μM)?
Answer: 2.00E+06

Question: What about the “Titer of HSV-1 Media, 48 h” value (HSV-1 [7]; Ilaprazole 4.5 μM) of the same compound?
Answer: 2.40E+06

Question: What about the “Titer of HSV-1 in media + cell lysate, 24 h” value (HSV-1 [7]; Ilaprazole 4.5 μM) of the same compound?
Answer: 7.0E+07

Question: And the “Titer of HSV-1 Media, 24 h” value (HSV-1 [7]; Ilaprazole 9.0 μM)?
Answer: 7.50E+04

Question: And the “Titer of HSV-1 Media, 48 h” value (HSV-1 [7]; Ilaprazole 9.0 μM)?
Answer: 2.50E+05

Question: What about the “Titer of HSV-1 in media + cell lysate, 24 h” value (HSV-1 [7]; Ilaprazole 9.0 μM) of the same compound?
Answer: 3.6E+06

Question: And the “Titer of HSV-1 Media, 24 h” value (HSV-1 [7]; Ilaprazole 13.5 μM)?
Answer: 3.20E+04

Question: What about the “Titer of HSV-1 Media, 48 h” value (HSV-1 [7]; Ilaprazole 13.5 μM) of the same compound?
Answer: 2.00E+02

Question: And the “Titer of HSV-1 in media + cell lysate, 24 h” value (HSV-1 [7]; Ilaprazole 13.5 μM)?
Answer: 3.8E+05

Question: What about the “Titer of HSV-1 Media, 24 h” value (HSV-1 [7]; Ilaprazole 18.0 μM) of the same compound?
Answer: 6.00E+02

Question: What about the “Titer of HSV-1 Media, 48 h” value (HSV-1 [7]; Ilaprazole 18.0 μM) of the same compound?
Answer: 0.00E+00

Question: And the “Titer of HSV-1 in media + cell lysate, 24 h” value (HSV-1 [7]; Ilaprazole 18.0 μM)?
Answer: 9.1E+03

Question: What about the “Titer of HSV-1 Media, 24 h” value (HSV-1 [7]; Ilaprazole 22.5 μM) of the same compound?
Answer: 1.00E+02

Question: And the “Titer of HSV-1 Media, 48 h” value (HSV-1 [7]; Ilaprazole 22.5 μM)?
Answer: 0.00E+00

Question: And the “Titer of HSV-1 in media + cell lysate, 24 h” value (HSV-1 [7]; Ilaprazole 22.5 μM)?
Answer: 7E+02

Question: What about the “Inhibition of virus release 4 and 5 days after a single application” value (HSV-1 [7]; data not shown) of the same compound?
Answer: Significant inhibition was still observed

Question: What about the EC50 (HSV-1 [7]; read-out: EC50, inhibition of HSV-1 release at 72 h, 72 h after a single application) of the same compound?
Answer: 800 to 1200 nM

Question: What about the EC50 (HSV-1 [7]; read-out: EC50, inhibition of HSV-1 release, 24 h, range stated jointly for HSV-1 and HSV-2) of the same compound?
Answer: 3000 to 9000 nM

Question: What about the “p24 pg/ml HIV” value (HIV-1 [8]; Ilaprazole 0.5 μM) of the same compound?
Answer: 4063 pg/mL

Question: What about the “p24 pg/ml HIV” value (HIV-1 [8]; Ilaprazole 1 μM) of the same compound?
Answer: 3518 pg/mL

Question: And the “p24 pg/ml HIV” value (HIV-1 [8]; Ilaprazole 2 μM)?
Answer: 1652 pg/mL

Question: What about the “p24 pg/ml HIV” value (HIV-1 [8]; Ilaprazole 5 μM) of the same compound?
Answer: 274 pg/mL

Question: And the “p24 pg/ml HIV” value (HIV-1 [8]; Ilaprazole 10 μM)?
Answer: 178 pg/mL

Question: And the “Thermal shift (Tm shift)” value [2]?
Answer: largest thermal shift

Question: And the “Tm shift of Tsg101 in the FTS assay on addition of DTT” value (shortened to “Tm shift of Tsg101 in the FTS assay”) [2]?
Answer: blocked by the addition of DTT; also recorded: abolishes the Tm shift

Question: And the “Average number of virus particles in the nucleus” value (HSV-1 [9])?
Answer: 43 particles

Question: What about the “Range of virus particles in the nucleus” value (HSV-1 [9]) of the same compound?
Answer: 15-166 particles

Question: And the “Virus particles in the cytoplasm” value (HSV-1 [9])?
Answer: 0 particles

Question: For Pantoprazole, which “EC50 (μM) Inhibition” value (HSV-2 [1]; [10]) is on record?
Answer: inactive

Question: What about the “Thermal shift (Tm shift)” value [2] of the same compound?
Answer: smallest thermal shift

Question: And the “Tm shift of Tsg101 in the FTS assay” value [2]?
Answer: abolishes the Tm shift

Question: Which “EC50 (μM) Inhibition” value (HSV-2 [1]; [10]) does the source give for Rabeprazole here?
Answer: inactive

Question: What about the “Tm shift of Tsg101 in the FTS assay” value [2] of the same compound?
Answer: abolishes the Tm shift
